According to patent publication US20150307491A1, “SUBSTITUTED PYRIDOPYRAZINES AS SYK INHIBITORS” (HUTCHISON MEDIPHARMA LIMITED, priority 2012, published 2015):

Tests used:
[1] = system: RBL-2H3 cells; experiment: IgE-induced Beta-hexosaminidase secretion in RBL-2H3 cells; type: cell-based; settings: Rattus norvegicus; RBL-2H3 cells sensitized with SPE-7, stimulated with DNP-BSA
Protocol: For the determination of IgE-induced Beta-hexosaminidase secretion, RBL-2H3 cells (SIBS) are seeded in 96 well plates at 4×10^4 cells per well and incubated in MEM media with 15% FBS and Glutamine ([…]) for 4 hours and sensitized with 0.5 ug/ml of SPE-7 overnight. Cells are washed 3 times with Tyrode's buffer and incubated in the presence or absence of various concentrations of the testing compound for 20 min at 37° C., 5% CO2. Cells are stimulated by adding 10 μL of DNP-BSA solution (150 ng/mL) to each well and incubating for 45 minutes at 37° C., 5% CO2. Then, 45 μL of the supernatant is taken and incubated with 100 μL of 1 mM 4-Nitrophenyl N-acetyl-β-D-glucosaminide (Sigma, Cat. No. N9376), which is diluted in 0.05 M citrate buffer (pH 4.5), for 1.5 hr at 37° C. The reactions are quenched by adding 185 μL of 0.05 M sodium carbonate buffer (pH 10.0). Plates are read at 405 nm on Multiskan (MK 3).

[2] = molecular target: Syk kinase (Homo sapiens, UniProt P43405); experiment: SYK enzymatic assay; type: biochemical; settings: Tyr 2 Peptide, 8 concentrations 1 μM down to 0.0003 μM
Protocol: Syk kinase assay are performed in vitro using Kit-Tyr 2 Peptide (Invitrogen, Cat. No. PV3191) and in a 384-well assay plate. […] The 384-well assay plate (Corning, Cat. No. 3575) is mixed and incubated at room temperature for 1 hour. 10 μL of the Development Solution (prepared by diluting Development Reagent A (Cat. No. PV3297) to 1/32 with Development Buffer (Cat. No. PV3127)) is then added to each well, mixed and incubated at room temperature for another 1 hour. The reactions are then stopped by adding 10 μL of the Stop Reagent (Invitrogen, Cat. No. PV3094), and the plate is read with Wallac 1420 VICTOR^3 Multilabel Counter (PerkinElmer™) at 445 nm and 520 nm fluorescence. All compounds are tested at 8 concentrations (1 μM down to 0.0003 μM) using a 1:3 serial dilution scheme.

[3] = molecular target: T1, Flt3 kinase (Homo sapiens, UniProt P36888); experiment: Z-lyte kinase assay of Flt-3; type: biochemical; settings: Z-LYTE Tyr 2 peptide; final concentrations 3 to 0.0014 μM
T1 construct: purchased Invitrogen PV3182
T1 sequence (P36888 564-993 limits assumed): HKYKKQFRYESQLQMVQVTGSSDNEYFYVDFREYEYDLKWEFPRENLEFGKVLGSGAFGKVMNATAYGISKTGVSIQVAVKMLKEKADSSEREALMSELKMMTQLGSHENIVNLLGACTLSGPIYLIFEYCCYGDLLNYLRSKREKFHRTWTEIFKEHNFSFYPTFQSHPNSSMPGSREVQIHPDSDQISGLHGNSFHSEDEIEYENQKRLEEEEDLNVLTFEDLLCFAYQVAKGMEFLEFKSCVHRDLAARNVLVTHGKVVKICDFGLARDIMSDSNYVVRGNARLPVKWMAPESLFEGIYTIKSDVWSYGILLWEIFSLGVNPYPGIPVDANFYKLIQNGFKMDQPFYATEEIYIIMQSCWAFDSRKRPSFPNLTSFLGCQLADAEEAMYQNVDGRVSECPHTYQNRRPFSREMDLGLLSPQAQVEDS
Protocol: Z-lyte kinase assay of Flt-3:
Dilute 5× Kinase Buffer to 1,33× with ddH2O
Serially dilute the test compounds to 4 folds of the concentrations desired, keeping the DMSO concentration at 8%. The final concentrations were 3, 1, 0.33, 0.11, 0.037, 0.012, 0.004, 0.0014 μM, and the final concentration of DMSO was 2%,
Prepare Kinase/Peptide Mixture by diluting the kinase to 0.12 μg/mL and the Z-LYTE™ Tyr 2 peptide to 4 μM in 1.33× Kinase Buffer. Mix gently by pipetting. 4) Phcspho-peptide Solution (PP solution)
Add 0.4 μL of Z-LYTE™ Tyr 2 Phospho-peptide to 99.6 μL of 1.33× Kinase Buffer.
Prepare ATP Solution by diluting the 10 mM of ATP in 1.33× Kinase Buffer to 1.88 mM.
Dilute Development Reagent A with Development Buffer as 1:64.
1) Kinase reaction (10 μL of Volume) • a. Add 2.5 μL of 4× test Cpds to each well except C1, C2, C3 wells
Add 2.5 μL of 8% DMSO to C1, C2, C3 wells • b. Put the 384-plate on ice • c. Add 5 μL of P/K mixture to each test Cpd wells and C1, C2 wells • d. Add 5 μL of PP Solution to C3 well • e. Add 2.5 μL of 1,33× kinase buffer to C1 and C3 wells • f. Add 2.5 μL of 4×ATP Solution to each test Cpd wells and C2 well, respectively.
Shake the plate for 30 Sec and centrifuge (1500 rpm, 1 min) • g. Seal the plate to protect from the light and incubate the plate for 1 hour at RT (25-30° C.) 2) Development reaction • a. Add 5 μL of the Development solution to all wells • b. Shake the plate for 30 Sec and centrifuge (1500 rpm, 1 min) • c. Seal the plate to protect from the light and incubate the plate for 1 hour at RT (25-30° C.) 3) Stop and read • a. Add 5 μL of the Stop reagent to all wells • b. Shake the plate for 30 Sec and centrifuge (1500 rpm, 1 min) • c. Measure the value of Coumarin (Ex400 nm, Em445 nm) and fluorescein (Ex400 nm, Em520 nm), respectively. 4. Data analysis
Emission Ratio (ER) Coumarin Emission (445 nm)/Fluorescein Emission (520 nm)
inhibition ratio (IR)=1−% Photest Cpd/% PhoC2%
IC50 Value: determined with add-in software for Microsoft Excel, XLfit™ (version 2.0) from ID Business Solutions (Guildford: UK)

`O=C(C(F)F)N1CCO[C@H](COc2nc(-c3ccc(C4CCOCC4)cc3)cc3nccnc23)C1` [Compound 9] showed an IC50 [1] of 100 to 1000 nM and an IC50 [2] of 1 to 100 nM.
Work on `O=C(C(F)F)N1CCO[C@H](COc2nc(-c3ccc(N4CCOCC4)c(F)c3)cc3nccnc23)C1` [Compound 15] yielded an IC50 [1] of 100 to 1000 nM and an IC50 [2] of 1 to 100 nM.
With `CN(C)c1ccc(-c2cc3nccnc3c(OC[C@@H]3CN(C(=O)C(F)F)CCO3)n2)cc1F` [Compound 32] the IC50 [1] was 1 to 100 nM and the IC50 [3] was > 3000 nM.
For `CC(=O)N1CCO[C@H](COc2nc(-c3ccc(N(C)C)cc3)cc3nccnc23)C1` [Compound 67], the IC50 [1] was 1 to 100 nM and the IC50 [3] was 2520 nM.
With `CN(C)c1ccc(-c2cc3nccnc3c(OC[C@@H]3CN(C(=O)C4CC4)CCO3)n2)cc1` [Compound 69] the IC50 [1] was 1 to 100 nM and the IC50 [3] was > 3000 nM.
Work on `CN(C)c1ccc(-c2cc3nccnc3c(OC[C@@H]3CN(C(=O)CC4CC4)CCO3)n2)cc1` [Compound 70] yielded an IC50 [1] of 100 to 1000 nM and an IC50 [2] of 1 to 100 nM.
`CN(C)c1ccc(-c2cc3nccnc3c(OC[C@@H]3CN(C(=O)[C@H]4CC[C@H](O)CC4)CCO3)n2)cc1` [Compound 75] was tested, and the IC50 [2] was 1 to 100 nM.
In the case of `CC(C)S(=O)(=O)N1CCO[C@H](COc2nc(-c3ccc(N(C)C)cc3)cc3nccnc23)C1` [Compound 89], the IC50 [1] is reported as 100 to 1000 nM and the IC50 [2] is reported as 1 to 100 nM.
With `CN(C)c1ccc(-c2cc3nccnc3c(OC[C@@H]3CN(S(=O)(=O)C4CC4)CCO3)n2)cc1` [Compound 90] the IC50 [1] was 1 to 100 nM and the IC50 [3] was > 3000 nM.
`CN(C)c1ccc(-c2cc3nccnc3c(OC[C@@H]3CN(S(C)(=O)=O)CCO3)n2)cc1` [Compound 94] gave an IC50 [1] of 1 to 100 nM and an IC50 [3] of 2010 nM.
`CN(C)c1ccc(-c2cc3nccnc3c(OC[C@@H]3CN(C(=O)[C@H]4CCOC4)CCO3)n2)cc1` [Compound 95] gave an IC50 [1] of 1 to 100 nM and an IC50 [3] of 2820 nM.
For `CN(C)c1ccc(-c2cc3nccnc3c(OC[C@@H]3CN(C(=O)C(F)F)CCO3)n2)cc1` [Compound 100], the IC50 [1] was 1 to 100 nM and the IC50 [3] was > 3000 nM.
For `CS(=O)(=O)N1CCO[C@H](COc2nc(-c3ccc4c(c3)OCCO4)cc3nccnc23)C1` [Compound 109], the IC50 [1] was 100 to 1000 nM and the IC50 [2] was 1 to 100 nM.
For `CCN(CC)c1ccc(-c2cc3nccnc3c(OC[C@@H]3CN(S(C)(=O)=O)CCO3)n2)cc1` [Compound 119], the IC50 [1] was 1 to 100 nM.
`Cn1ccc2ccc(-c3cc4nccnc4c(OC[C@@H]4CN(S(C)(=O)=O)CCO4)n3)cc21` [Compound 120] was tested, and the IC50 [1] was 1 to 100 nM.
`CC(=O)N1CCN(c2ccc(-c3cc4nccnc4c(OC[C@@H]4CN(S(C)(=O)=O)CCO4)n3)cc2)CC1` [Compound 122] gave an IC50 [1] of 1 to 100 nM.
Work on `CN(C)c1ccc(-c2cc3nccnc3c(O[C@@H]3CCOC3)n2)cc1` [Compound 123] yielded an IC50 [1] of 1 to 100 nM.
With `CS(=O)(=O)N1CCC(c2ccc(-c3cc4nccnc4c(O[C@@H]4CCOC4)n3)cc2)CC1` [Compound 124] the IC50 [1] was 1 to 100 nM.
Compound `CN1CCN(c2ccc(-c3cc4nccnc4c(O[C@@H]4CCOC4)n3)cc2)CC1` [Compound 125] has an IC50 [1] of 1 to 100 nM.
Compound `COc1cc(-c2cc3nccnc3c(OC[C@@H]3CN(S(C)(=O)=O)CCO3)n2)ccc1OCCN(C)C` [Compound 126] has an IC50 [1] of 100 to 1000 nM.
With `CN(C)c1ccc(-c2cc3nccnc3c(OC3CCCOC3)n2)cc1` (stereo not drawn) [Compound 127] the IC50 [1] was 1 to 100 nM.
For `CNC(=O)COc1ccc(-c2cc3nccnc3c(OC[C@@H]3CN(S(C)(=O)=O)CCO3)n2)cc1` [Compound 129], the IC50 [1] was 100 to 1000 nM.
`CCN(CC)c1ccc(-c2cc3nccnc3c(OC[C@@H]3CN(C(C)=O)CCO3)n2)cc1` [Compound 131] gave an IC50 [1] of 1 to 100 nM.
`CNc1ccc(-c2cc3nccnc3c(O[C@@H]3CCOC3)n2)cc1` [Compound 133] was tested, and the IC50 [1] was 1 to 100 nM.
Work on `Cc1cc(-c2cc3nccnc3c(OC[C@@H]3CN(S(C)(=O)=O)CCO3)n2)ccc1N(C)C` [Compound 134] yielded an IC50 [1] of 1 to 100 nM.
Work on `CN(C)c1ccc(-c2cc3nccnc3c(OC[C@@H]3CN(C(N)=O)CCO3)n2)cc1` [Compound 136] yielded an IC50 [1] of 1 to 100 nM.
For `CNC(=O)N1CCO[C@H](COc2nc(-c3ccc(N(C)C)cc3)cc3nccnc23)C1` [Compound 137], the IC50 [1] was 1 to 100 nM.
